In patent publication US6884799B2, “Non-cross-linking pyrrolo[2,1-c][1,4]benzodiazepines and process thereof” (Council of Scientific and Industrial Research, priority 2003, dated 2005):

Columns and labels:
Assay type in all cases: cell-based
Breast cancer cell lines = assay: NCI in vitro cytotoxicity, SRB assay, breast panel; conditions: Homo sapiens, read-out: Log LC50 (concentration in mol/L causing 50% lethality) (converted)
Procedure: (§1) Biological Activity. In vitro biological activity studies were carried out at National Cancer Institute (USA).
(§2) Cytotoxicity. Compounds Va and Vc were evaluated in vitro against sixty human tumour cells derived from nine cancer types (leukemia, non-small-cell lung, colon, CNS, melanoma, ovarian, prostate, and breast cancer). For each compound, dose response curves for each cell line were measured at a minimum of five concentrations at 10 fold dilutions. A protocol of 48 h continuous drug exposure was used, and a sulforhodamine B (SRB) protein assay was used to estimate cell viability or growth. The concentration causing 50% cell growth inhibition (GI50), total cell growth inhibition (TGI 0% growth) and 50% cell death (LC50, −50% growth) compared with the control was calculated.
(§3) Each cancer type represents the average of six to eight different cancer cell lines.

[1] = system: non-small-cell lung cancer cell lines; assay: NCI in vitro cytotoxicity, SRB assay, non-small-cell lung panel; conditions: Homo sapiens, read-out: Log LC50 (concentration in mol/L causing 50% lethality) (converted)
Procedure: as §1, §2, §3

colon cancer cell lines = assay: NCI in vitro cytotoxicity, SRB assay, colon panel; conditions: Homo sapiens, read-out: Log LC50 (concentration in mol/L causing 50% lethality) (converted)
Procedure: as §1, §2, §3

[2] = system: melanoma cancer cell lines; assay: NCI in vitro cytotoxicity, SRB assay, melanoma panel; conditions: Homo sapiens, read-out: Log LC50 (concentration in mol/L causing 50% lethality) (converted)
Procedure: as §1, §2, §3

[3] = system: prostate cancer cell lines; assay: NCI in vitro cytotoxicity, SRB assay, prostate panel; conditions: Homo sapiens, read-out: Log LC50 (concentration in mol/L causing 50% lethality) (converted)
Procedure: as §1, §2, §3

[4] = system: sixty human tumour cells derived from nine cancer types; assay: cells; conditions: for GI50 / CC50: Homo sapiens, 48 h; for GI50: read-out: Log10 GI50 mean graph midpoint (MG_MID) (converted); for CC50: read-out: Log10 LC50 mean graph midpoint (MG_MID) (converted); for Log10 TGI mean graph midpoint (MG_MID): total cell growth inhibition (0% growth), 48 h continuous drug exposure, SRB
Procedure: as §1, §2

renal cancer cell lines = assay: NCI in vitro cytotoxicity, SRB assay, renal panel; conditions: Homo sapiens, read-out: Log LC50 (concentration in mol/L causing 50% lethality) (converted)
Procedure: as §1, §2, §3

[5] = system: leukemia cancer cell lines; assay: NCI in vitro cytotoxicity, SRB assay, leukemia panel; conditions: Homo sapiens, read-out: Log LC50 (concentration in mol/L causing 50% lethality) (converted)
Procedure: as §1, §2, §3

[6] = system: ovarian cancer cell lines; assay: NCI in vitro cytotoxicity, SRB assay, ovarian panel; conditions: Homo sapiens, read-out: Log LC50 (concentration in mol/L causing 50% lethality) (converted)
Procedure: as §1, §2, §3

CNS cancer cell lines = assay: NCI in vitro cytotoxicity, SRB assay, CNS panel; conditions: Homo sapiens, read-out: Log LC50 (concentration in mol/L causing 50% lethality) (converted)
Procedure: as §1, §2, §3

Row | SMILES | CC50 (Breast cancer cell lines) [µM] | CC50 [1] [µM] | CC50 (colon cancer cell lines) [µM] | CC50 [2] [µM] | CC50 [3] [µM] | cytotoxic / anticancer activity in words [4] | GI50 [4] [µM] | CC50 [4] [µM] | Log10 TGI mean graph midpoint (MG_MID) [4] | CC50 (renal cancer cell lines) [µM] | CC50 [5] [µM] | CC50 [6] [µM] | CC50 (CNS cancer cell lines) [µM]
1 | COc1cc2c(cc1OCCCOc1cc3c(cc1OC)C(=O)N1CCC[C@H]1CN3)N=C[C@@H]1CCCN1C2=O [Compound Va, 7-Methoxy-8-{3-[7-methoxy-(11aS)-1,2,3,10,11,11a-hexahydro-5H-pyrrolo[2,1-c][1,4]benzodiazepine-5-one-8-yloxy]propoxy}-(11aS)-1,2,3,11a-tetrahydro-5H-pyrrolo[2,1-c][1,4]benzodiazepine-5-one] | 43.7 | 38.9 | 25.7 | 3.55 | 83.2 | slightly higher activity | 0.158 | 33.1 | −5.73 | 63.1 | 83.2 | 70.8 | 32.4
2 | COc1cc2c(cc1OCCCCCOc1cc3c(cc1OC)C(=O)N1CCC[C@H]1CN3)N=C[C@@H]1CCCN1C2=O [Compound Vc, 7-Methoxy-8-{5-[7-methoxy-(11aS)-1,2,3,10,11,11a-hexahydro-5H-pyrrolo[2,1-c][1,4]benzodiazepine-5-one-8-yloxy]pentyloxy}-(11aS)-1,2,3,11a-tetrahydro-5H-pyrrolo[2,1-c][1,4]benzodiazepine-5-one] | 89.1 | 72.4 | 91.2 | 38 | ≥ 100 | interesting profile of activity and selectivity for various cell lines | 5.13 | 70.8 | −4.55 | 95.5 | 34.7 | 97.7 | 81.3
